Experimental data: US20160122320A1, “USEFUL COMBINATIONS OF MONOBACTAM ANTIBIOTICS WITH BETA-LACTAMASE INHIBITORS” (Basilea Pharmaceutica AG, priority 2005, published 2016)
Where a name gives a salt, the structure may show the parent alone. Values belong to the compound of their own block, whether it stands above or below them.

How the values were obtained:
Test in all cases: MIC, NCCLS broth microdilution
Format in all cases: cell-based
Enterobacter cloacae P99 = conditions: for MIC of antibiotic at fixed inhibitor concentration (4 mg/L): MIC of antibiotic compound 1 with the labelled bridged monobactam of formula II and clavulanate, 4 mg/L each
[1] = test system: Pseudomonas aeruginosa MK1184; conditions: for MIC of antibiotic at fixed inhibitor concentration (4 mg/L): MIC of antibiotic compound 1 with the labelled bridged monobactam of formula II and clavulanate, 4 mg/L each
Serratia marcescens S6 = conditions: for MIC of antibiotic at fixed inhibitor concentration (4 mg/L): MIC of antibiotic compound 1 with the labelled bridged monobactam of formula II and clavulanate, 4 mg/L each
[2] = test system: Klebsiella pneumoniae CF104; conditions: for MIC of antibiotic at fixed inhibitor concentration (4 mg/L): MIC of antibiotic compound 1 with the labelled bridged monobactam of formula II and clavulanate, 4 mg/L each
[3] = test system: Stenotrophomonas malthophilia 1AC736; conditions: for MIC of antibiotic at fixed inhibitor concentration (4 mg/L): Stenotrophomonas malthophilia 1AC736, MIC of antibiotic compound 1 with the labelled bridged monobactam of formula II and clavulanate, 4 mg/L each
[4] = test system: Pseudomonas aeruginosa 1973E; conditions: for MIC of antibiotic at fixed inhibitor concentration (4 mg/L): MIC of antibiotic compound 1 with the labelled bridged monobactam of formula II and clavulanate, 4 mg/L each
Summary of the method: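 Broth microdilution per NCCLS M7-A5, final DMSO ≤1%, overnight incubation at 30° C. or 37° C. MIC is the lowest concentration completely inhibiting visible growth, read by eye. In combination tests, formula I compounds were serially diluted with formula II and III-XIII partners held at 4 μg/mL each.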

Acinetobacter sp. J2 = conditions: for MIC of antibiotic at fixed inhibitor concentration (4 mg/L): Acinetobacter sp. J2, MIC of antibiotic compound 1 with the labelled bridged monobactam of formula II and clavulanate, 4 mg/L each
[5] = with clavulanate (clavulanic acid)
[6] = Stenotrophomonas maltophilia 1AC736, with clavulanate (clavulanic acid)
[7] = Acinetobacter baumannii J2, with clavulanate (clavulanic acid)

MIC of antibiotic at fixed inhibitor concentration (4 mg/L) (Enterobacter cloacae P99): 32 µg/mL
MIC of antibiotic at fixed inhibitor concentration (4 mg/L) [1]: 16 µg/mL
MIC of antibiotic at fixed inhibitor concentration (4 mg/L) (Serratia marcescens S6): 0.5 µg/mL
MIC of antibiotic at fixed inhibitor concentration (4 mg/L) [2]: <0.06 µg/mL
MIC of antibiotic at fixed inhibitor concentration (4 mg/L) [3]: 0.125 µg/mL
MIC of antibiotic at fixed inhibitor concentration (4 mg/L) [4]: 8 µg/mL
MIC of antibiotic at fixed inhibitor concentration (4 mg/L) (Acinetobacter sp. J2): 4 µg/mL
Structure (SMILES): O=C(N[C@@H]1CCNC1)c1ccc[n+](CC(=O)N2CC[C@@H]3[C@H]2C(=O)N3S(=O)(=O)[O-])c1 [Compound 125, 2-(2-{3-[N-((3R)pyrrolidin-3-yl)carbamoyl]pyridinium}acetyl)(1S,5R)-7-oxo-2,6-diazabicyclo[3.2.0]heptane-6-sulfonate, inner salt]

MIC of antibiotic at fixed inhibitor concentration (4 mg/L) (Enterobacter cloacae P99): 32 µg/mL
MIC of antibiotic at fixed inhibitor concentration (4 mg/L) [1]: 32 µg/mL
MIC of antibiotic at fixed inhibitor concentration (4 mg/L) (Serratia marcescens S6): 0.25 µg/mL
MIC of antibiotic at fixed inhibitor concentration (4 mg/L) [2]: <0.06 µg/mL
MIC of antibiotic at fixed inhibitor concentration (4 mg/L) [3]: <0.06 µg/mL
MIC of antibiotic at fixed inhibitor concentration (4 mg/L) [4]: 4 µg/mL
MIC of antibiotic at fixed inhibitor concentration (4 mg/L) (Acinetobacter sp. J2): 8 µg/mL
Structure (SMILES): NC(=O)c1cnccc1C(=O)NCC(=O)N1CC[C@@H]2[C@H]1C(=O)N2S(=O)(=O)O [Compound 402, (1S,5R)-2-{2-[(3-carbamoylpyridyl-4)carbonylamino]acetyl}-7-oxo-2,6-diazabicyclo[3.2.0]heptane-6-sulfonic acid]

Further lines, the compound ahead of its results:

Structure (SMILES): CC1C(NC(=O)C(=NOCc2cc(=O)c(O)cn2O)c2cccc(N)n2)C(=O)N1S(=O)(=O)O (stereo not shown) [Compound 20]
MIC of antibiotic (Enterobacter cloacae P99; antibiotic alone, no inhibitor): >32 µg/mL
MIC of antibiotic at fixed inhibitor concentration of 4 mg/L (Enterobacter cloacae P99; with 102 and clavulanate): 16 µg/mL
MIC of antibiotic at fixed inhibitor concentration of 4 mg/L (Enterobacter cloacae P99; with 206 and clavulanate): 16 µg/mL
MIC of antibiotic at fixed inhibitor concentration of 4 mg/L (Enterobacter cloacae P99; with 501): >32 µg/mL
MIC of antibiotic at fixed inhibitor concentration of 4 mg/L (Enterobacter cloacae P99; [5]): >32 µg/mL
MIC of antibiotic ([1]; antibiotic alone, no inhibitor): >32 µg/mL
MIC of antibiotic at fixed inhibitor concentration of 4 mg/L ([1]; with 102 and clavulanate): 8 µg/mL
MIC of antibiotic at fixed inhibitor concentration of 4 mg/L ([1]; with 206 and clavulanate): >32 µg/mL
MIC of antibiotic at fixed inhibitor concentration of 4 mg/L ([1]; with 501): >32 µg/mL
MIC of antibiotic at fixed inhibitor concentration of 4 mg/L [1, 5]: >32 µg/mL
MIC of antibiotic (Serratia marcescens S6; antibiotic alone, no inhibitor): 4 µg/mL
MIC of antibiotic at fixed inhibitor concentration of 4 mg/L (Serratia marcescens S6; with 102 and clavulanate): 0.5 µg/mL
MIC of antibiotic at fixed inhibitor concentration of 4 mg/L (Serratia marcescens S6; with 206 and clavulanate): 0.5 µg/mL
MIC of antibiotic at fixed inhibitor concentration of 4 mg/L (Serratia marcescens S6; with 501): 2 µg/mL
MIC of antibiotic at fixed inhibitor concentration of 4 mg/L (Serratia marcescens S6; [5]): 2 µg/mL
MIC of antibiotic ([2]; antibiotic alone, no inhibitor): >32 µg/mL
MIC of antibiotic at fixed inhibitor concentration of 4 mg/L ([2]; with 102 and clavulanate): 2 µg/mL
MIC of antibiotic at fixed inhibitor concentration of 4 mg/L ([2]; with 206 and clavulanate): 4 µg/mL
MIC of antibiotic at fixed inhibitor concentration of 4 mg/L ([2]; with 501): 16 µg/mL
MIC of antibiotic at fixed inhibitor concentration of 4 mg/L [2, 5]: 32 µg/mL
MIC of antibiotic ([3]; Stenotrophomonas maltophilia 1AC736, antibiotic alone, no inhibitor): 4 µg/mL
MIC of antibiotic at fixed inhibitor concentration of 4 mg/L ([3]; Stenotrophomonas maltophilia 1AC736, with 102 and clavulanate): 0.25 µg/mL
MIC of antibiotic at fixed inhibitor concentration of 4 mg/L ([3]; Stenotrophomonas maltophilia 1AC736, with 206 and clavulanate): 0.5 µg/mL
MIC of antibiotic at fixed inhibitor concentration of 4 mg/L ([3]; Stenotrophomonas maltophilia 1AC736, with 501): 0.25 µg/mL
MIC of antibiotic at fixed inhibitor concentration of 4 mg/L [3, 6]: 0.25 µg/mL
MIC of antibiotic ([4]; antibiotic alone, no inhibitor): 16 µg/mL
MIC of antibiotic at fixed inhibitor concentration of 4 mg/L ([4]; with 102 and clavulanate): 32 µg/mL
MIC of antibiotic at fixed inhibitor concentration of 4 mg/L ([4]; with 206 and clavulanate): 16 µg/mL
MIC of antibiotic at fixed inhibitor concentration of 4 mg/L ([4]; with 501): 16 µg/mL
MIC of antibiotic at fixed inhibitor concentration of 4 mg/L [4, 5]: 16 µg/mL
MIC of antibiotic (Acinetobacter sp. J2; Acinetobacter baumannii J2, antibiotic alone, no inhibitor): >32 µg/mL
MIC of antibiotic at fixed inhibitor concentration of 4 mg/L (Acinetobacter sp. J2; Acinetobacter baumannii J2, with 102 and clavulanate): >32 µg/mL
MIC of antibiotic at fixed inhibitor concentration of 4 mg/L (Acinetobacter sp. J2; Acinetobacter baumannii J2, with 206 and clavulanate): >32 µg/mL
MIC of antibiotic at fixed inhibitor concentration of 4 mg/L (Acinetobacter sp. J2; Acinetobacter baumannii J2, with 501): <0.06 µg/mL
MIC of antibiotic at fixed inhibitor concentration of 4 mg/L (Acinetobacter sp. J2; [7]): >32 µg/mL

Structure (SMILES): CC(=O)Nc1cccc(NC(=O)N2CC[C@@H]3[C@H]2C(=O)N3S(=O)(=O)[O-])c1.[Na+] [Compound 307, Sodium(1S,5R)-2-{N-[3-(acetylamino)phenyl]carbamoyl}-7-oxo-2,6-diazabicyclo[3.2.0]heptane-6-sulfonate]
MIC of antibiotic at fixed inhibitor concentration (4 mg/L) (Enterobacter cloacae P99): 32 µg/mL
MIC of antibiotic at fixed inhibitor concentration (4 mg/L) [1]: >32 µg/mL
MIC of antibiotic at fixed inhibitor concentration (4 mg/L) (Serratia marcescens S6): 0.25 µg/mL
MIC of antibiotic at fixed inhibitor concentration (4 mg/L) [2]: 2 µg/mL
MIC of antibiotic at fixed inhibitor concentration (4 mg/L) [3]: 0.125 µg/mL
MIC of antibiotic at fixed inhibitor concentration (4 mg/L) [4]: 8 µg/mL
MIC of antibiotic at fixed inhibitor concentration (4 mg/L) (Acinetobacter sp. J2): >32 µg/mL

Structure (SMILES): CC1(C)S[C@@H]2[C@H](NC(=O)[C@H](N)c3ccc(O)cc3)C(=O)N2[C@H]1C(=O)O [Amoxicillin, amoxicillin, reference compound]
MIC of antibiotic at fixed inhibitor concentration of 4 mg/L (Enterobacter cloacae P99; [5]): >32 µg/mL
MIC of antibiotic at fixed inhibitor concentration of 4 mg/L [1, 5]: >32 µg/mL
MIC of antibiotic at fixed inhibitor concentration of 4 mg/L (Serratia marcescens S6; [5]): >32 µg/mL
MIC of antibiotic at fixed inhibitor concentration of 4 mg/L [2, 5]: 32 µg/mL
MIC of antibiotic at fixed inhibitor concentration of 4 mg/L [3, 6]: >32 µg/mL
MIC of antibiotic at fixed inhibitor concentration of 4 mg/L [4, 5]: >32 µg/mL
MIC of antibiotic at fixed inhibitor concentration of 4 mg/L (Acinetobacter sp. J2; [7]): >32 µg/mL

Structure (SMILES): CNC(=O)c1ccc[n+](CC(=O)N2CC[C@@H]3[C@H]2C(=O)N3S(=O)(=O)[O-])c1 [Compound 101, (1S,5R)-2-{2-[3-(N-methylcarbamoyl)pyridinium]acetyl}-7-oxo-2,6-diazabicyclo[3.2.0]heptane-6-sulfonate, inner salt]
MIC of antibiotic at fixed inhibitor concentration (4 mg/L) (Enterobacter cloacae P99): 32 µg/mL
MIC of antibiotic at fixed inhibitor concentration (4 mg/L) [1]: 8 µg/mL
MIC of antibiotic at fixed inhibitor concentration (4 mg/L) (Serratia marcescens S6): 0.5 µg/mL
MIC of antibiotic at fixed inhibitor concentration (4 mg/L) [2]: 2 µg/mL
MIC of antibiotic at fixed inhibitor concentration (4 mg/L) [3]: 0.125 µg/mL
MIC of antibiotic at fixed inhibitor concentration (4 mg/L) [4]: 4 µg/mL
MIC of antibiotic at fixed inhibitor concentration (4 mg/L) (Acinetobacter sp. J2): >32 µg/mL
